# Assay results published in patent publication US12066445B2, “System and method for cell levitation and monitoring” (THE BRIGHAM AND WOMEN'S HOSPITAL, INC., priority 2014, dated 2024).
# Where a name gives a salt, the structure may show the parent alone.
# Tests used:
# RBCs = experiment: Levitation of RBCs after photolysis of caged ATP; format: cell-based; conditions: extracellular ATP 0 to close to 10 mM after photolysis, 40 mM Gd+, FIG. 4c
# Source text: Consistent with this possibility that UV-induced ROS increased the paramagnetic signature of RBCs, in areas with increased cell density, RBCs formed distinct aggregates, shown as the red circle in FIG. 4b, likely due to weak paramagnetic attraction between ROS-containing RBCs. To test this hypothesis, a burst of extracellular ATP to dissociate 2-3 DPG (2,3-diphosphoglycerate) from hemoglobin was used, a process that also transitions RBCs from diamagnetic to weak paramagnetic cells. Isolated RBCs were washed and resuspended in HBSS^++ containing 40 mM Gd+ and 10 mM caged ATP (Life Technologies). RBCs were loaded into the capillary, placed between the magnets, and allowed to focus. Next, a region of 60×900 μm located about 70 μm above the levitating RBCs was selected and illuminated by a […] for 1 second at 100% intensity. The un-caged ATP, released into the suspension increased the extracellular concentration of ATP from 0 to nearly 10 mM. Cells were recorded using Slidebook 5.5. Following photolysis, caged-ATP became ATP, effectively increasing the concentration of biologically-active, extracellular ATP from 0 to close to 10 mM. […]
# yeast cells = experiment: Viability and magnetic levitation of yeast cells after drug treatment; format: cell-based; conditions: for levitation heights, magnetic properties and intrinsic magnetic signatures of yeast cells: 100 μM for 24 hours, 15 minutes of magnetic levitation, FIG. 14b; for viability of yeast cells (optical density): 100 μM, 24 hours, FIG. 14a
# Procedure: Looking at FIG. 14, the magnetic levitation and characteristics of yeast cells are illustrated that have either not been exposed or have been exposed to various drug treatments for some duration of time. FIG. 14a graphs the viability of yeast cells after different drug treatments (i.e., no drug treatment/control, 100 μM cantharidin, or 100 μM fluconazole) for 24 hours. […] FIG. 14b provides micrographs illustrating how, after 15 minutes of magnetic levitation, the levitation heights, magnetic properties and intrinsic magnetic signatures of yeast cells are altered after drug treatment with 100 μM cantharidin and 100 μM fluconazole for 24 hours.
# Turning now to FIG. 15, this figure provides data relating to the observed drug responses and observed changes in magnetic profile of cells. […] FIG. 15d provides various micrographs of cells treated with different concentration of drug (fluconazole), the treatment concentration being listed above each micrograph. […] It is further noted that these changes can be monitored with the magnetic levitation system at the single-cell level.
# (§1) In the examples above, to load samples into a microcapillary tube, microcapillaries were simply dipped into the sample vials, and sample filled into the capillary due to capillary forces. For each experiment, new microcapillary was used. Further, unless otherwise stated, cells were resuspended in 200 μL of 40 mM Gadolinium solution and loaded in 1.0×1.0 mm square microcapillary tubes (wall thickness 0.2 mm) by superficial tension action. Critoseal™ was inserted into either end of the microcapillary to prevent cells from drifting during analysis. The capillary was then loaded into a slot between the magnets and cells were imaged using either QImaging Emc^2 EMCCD camera on an Olympus BX62 microscope or a Qimaging EXi CCD camera on a Zeiss Axioscope microscope. For high-resolution images, a fluorescence microscope leveled on its side was perfectly horizontally placed, and used a mirror-free magnetic levitation setup. The images were analyzed with Slidebook 5.5. (3i, Denver, CO), ImageProPlus 7 (Media Cybernetics, Rockville, MD), and iVison 4.7 (Biovision, Exton PA).
# human PMNs = experiment: Static levitation of activated and GSH-treated PMNs; format: cell-based
# Procedure: Freshly isolated PMNs were activated by incubating them either with buffer (resting PMN), GSH-ME (GSH-treated PMN), or 10 nM PMA (activated PMN) for 5 minutes, washing twice, mixing, and resuspending them in 35 mM Gd+ solution. Prior to treatments, cells were labeled either with Cell Tracker Green (activated PMN) or Cell Mask Deep Red (GSH-treated PMN).
# The response of human PMNs during the activation phase of phagocytosis was studied by incubating PMNs with phorbol 12-myristate 13-acetate (PMA, 10 nM) for 10 minutes. As a control, PMNs were left in buffer for 10 minutes. Cells were then washed, fluorescently labeled, mixed together, and loaded into the magnetic levitation setup.
# [formula] […] The same samples were simultaneously examined by flow cytometry for changes in forward and side-scatter properties of PMNs associated with PMA activation, shown in FIG. 3d.
# To further understand the effect of intracellular ROS on the final position of levitating cells, cell permeable glutathione (GSH), an ROS scavenger was used.
# E. coli = experiment: Magnetic levitation profile of E. coli after antibiotic treatment; format: cell-based; conditions: for change of levitation heights and cellular magnetic profiles versus untreated control: E. coli treated two hours, 1 mg/mL, FIG. 21
# Source text: As the bacteria respond to the stimuli and antibiotics, their density are altered. This directly reflects on their levitation heights.
# With forward reference to FIG. 21, differences are illustrated in the observed magnetic levitation profiles of E. coli cells after different types of antibiotic treatment. […] The magnetic levitation profile of each of these antibiotics are compared to a control (i.e., untreated E. coli cells) in FIGS. 21a, 21b, and 21c, respectively.
# as §1
# [1] = test system: multi-drug resistant E. coli; experiment: Magnetic levitation profile of multi-drug resistant E. coli after antibiotic treatment; format: cell-based; conditions: multi-drug resistant E. coli clinical isolate, 1 mg/mL, two hours, FIG. 22
# Procedure: as §1
# [2] = test system: multi-drug resistant E. coli; conditions: cited from earlier work
# sickle RBCs = experiment: Levitation of healthy and sickle RBCs after sodium metabisulfite-induced dehydration; format: cell-based, human; conditions: 10 μM for 10 minutes at room temperature, images after 10 minutes of levitation
# Procedure: RBCs isolated from healthy and sickle cell disease patients were washed three times and incubated with 10 μM sodium metabisulfite for 10 minutes at room temperature. Cells were levitated as described above and images were recorded after 10 minutes. To increase the contrast of the cells against the background, images were filtered using an edge detection algorithm (Roberts).
# MDA breast cancer cells = test system: MDA breast cancer cells
# Procedure: FIG. 12b details the real-time observation of a HCl-applied single cell in which a viability assay was also conducted using Calcein (green fluorescent) for live cell and Propidium Iodine (red fluorescent) for dead cell. Fluorescent images and bright field images were overlapped each other to compose the micrographs at different time point.
molecule,measurement,setting,value
Nc1ncnc2c1ncn2[C@@H]1O[C@H](COP(=O)(O)OP(=O)(O)OP(=O)(O)O)[C@@H](O)[C@H]1O [ATP],changes in magnetic properties and levitation of RBCs,RBCs,loss of levitation
C[C@@]12C(=O)OC(=O)[C@]1(C)[C@H]1CC[C@@H]2O1 [cantharidin],"levitation heights, magnetic properties and intrinsic magnetic signatures of yeast cells",yeast cells,altered
same,viability of yeast cells (optical density),yeast cells,Different viabilities are observed
"CCOC(=O)CNC(=O)[C@H](CS)NC(=O)CC[C@H](N)C(=O)O [GSH, Glutathione reduced ethyl ester]",final levitation position of treated PMNs,"human PMNs; 35 mM Gd+ solution, FIG. 3e",equilibrated closer to resting PMNs
gentamicin,change of levitation heights and cellular magnetic profiles versus untreated control,E. coli,change the levitation heights and cellular magnetic profiles in a different manner
same,change in levitation heights and magnetic levitation profiles,[1],noticeable change
same,resistance or susceptibility of the clinical isolate,[2],susceptible
"CCCCCCCCCCCCCC(=O)O[C@@H]1[C@@H](C)[C@@]2(O)[C@@H](C=C(CO)C[C@]3(O)C(=O)C(C)=C[C@@H]23)[C@@H]2C(C)(C)[C@]12OC(C)=O [PMA, phorbol 12-myristate 13-acetate]","size, shape, optical density, magnetic and mass density signatures versus control PMNs","human PMNs; 10 nM for 10 minutes, FIG. 3a",distinct differences
same,roundness of cells versus buffer-treated PMNs,"human PMNs; PMA-activated PMNs, FIG. 3c",significant difference
O=S([O-])S(=O)(=O)[O-].[Na+].[Na+] [sodium metabisulfite],density of a subpopulation of sickle RBCs after treatment,sickle RBCs,significantly denser than healthy RBCs
O=C(O)c1cn(C2CC2)c2cc(N3CCNCC3)c(F)cc2c1=O [ciprofloxacin],change of levitation heights and cellular magnetic profiles versus untreated control,E. coli,change the levitation heights and cellular magnetic profiles in a different manner
"Cl [HCl, hydrochloric acid]",levitation height z of treated cells (bottom of the channel),"MDA breast cancer cells; 40 minutes of exposure to 100 mM HCl, FIG. 12a",−500 μm
same,viability assay (Calcein / Propidium Iodine) of a single cell,"MDA breast cancer cells; HCl-applied single cell, over 700 seconds, FIG. 12b",dying cell
CC1(C)S[C@@H]2[C@H](NC(=O)[C@H](N)c3ccccc3)C(=O)N2[C@H]1C(=O)O [ampicillin],change of levitation heights and cellular magnetic profiles versus untreated control,E. coli,change the levitation heights and cellular magnetic profiles in a different manner
same,differences between untreated and treated bacteria in magnetic levitation heights,"E. coli; E. coli, FIG. 13",significant differences
same,change in levitation heights and magnetic levitation profiles,[1],no significant change
same,resistance or susceptibility of the clinical isolate,[2],resistant
OC(Cn1cncn1)(Cn1cncn1)c1ccc(F)cc1F [fluconazole],"levitation heights, magnetic properties and intrinsic magnetic signatures of yeast cells",yeast cells,altered
same,viability of yeast cells (optical density),yeast cells,Different viabilities are observed
same,cellular magnetic profiles and single-cell densities,"yeast cells; 25, 50 or 100 μM, FIG. 15",cellular magnetic profiles and densities change
